Source: ChEMBL document CHEMBL5365399, “Design, synthesis and evaluation of new pyrimidine derivatives as EGFRC797S tyrosine kinase inhibitors” (Bioorg Med Chem Lett, 2023)
Calls of active or inactive are those of the source. The rule behind the calls is not given here.

Columns and labels:
[1] = (§1) Antiproliferative activity against mouse KC-0116 cells by MTT assay; format: functional, cell-based
[2] = Antiproliferative activity against mouse KC-0122 cells by MTT assay; format: functional, cell-based
HCC827 = assay: Antiproliferative activity against human HCC827 cells by MTT assay; format: functional, cell-based
A-431 = assay: Antiproliferative activity against human A-431 cells by MTT assay; format: functional, cell-based
NCI-H1975 = assay: Antiproliferative activity against human NCI-H1975 cells by MTT assay; format: functional, cell-based
[3] = Antiproliferative activity against mouse Ba/F3 EGFR-T790M/C797S/L858R cells; format: functional, cell-based
[4] = Induction of apoptosis in mouse KC-0116 cells assessed as viable cells at 300 nM measured after 36 hrs by Annexin V/propidium iodide staining based flow cytometry (reference value: 90.66%); format: functional; details: read-out: Activity
[5] = Induction of apoptosis in mouse KC-0116 cells assessed as necrotic cells at 300 nM measured after 36 hrs by Annexin V/propidium iodide staining based flow cytometry (reference value: 0.03%); format: functional
[6] = Induction of apoptosis in mouse KC-0116 cells assessed as early apoptotic cells at 300 nM measured after 36 hrs by Annexin V/propidium iodide staining based flow cytometry (reference value: 6.85%); format: functional
[7] = Induction of apoptosis in mouse KC-0116 cells assessed as late apoptotic cells at 300 nM measured after 36 hrs by Annexin V/propidium iodide staining based flow cytometry (reference value: 2.47%); format: functional
KC-0116 [8] = assay: Inhibition of EGFR-del19/T790M/C797S in mouse KC-0116 cells assessed as reduction in AKT phosphorylation measured after 8 hrs by Western blot analysis; format: cell-based; details: dose 0.3-3 µM
KC-0116 [9] = assay: Cell cycle arrest in mouse KC-0116 cells assessed as increase in cell population at G2/M-phase at 0.1 to 0.3 uM measured after 48 hrs by flow cytometry; format: functional, cell-based; details: dose 0.1-0.3 µM
KC-0116 [10] = assay: Inhibition of EGFR-del19/T790M/C797S in mouse KC-0116 cells assessed as reduction in EGFR phosphorylation measured after 8 hrs by Western blot analysis; format: cell-based; details: dose 0.3-3 µM
KC-0116 [11] = assay: Induction of apoptosis in mouse KC-0116 cells measured after 36 hrs by Annexin V/propidium iodide staining based flow cytometry; format: functional, cell-based; details: dose 0.1-3 µM
KC-0116 [12] = assay: as §1; format: functional, cell-based
[13] = Induction of apoptosis in mouse KC-0116 cells assessed as early apoptotic cells at 100 nM measured after 36 hrs by Annexin V/propidium iodide staining based flow cytometry (reference value: 6.85%); format: functional
[14] = Induction of apoptosis in mouse KC-0116 cells assessed as late apoptotic cells at 100 nM measured after 36 hrs by Annexin V/propidium iodide staining based flow cytometry (reference value: 2.47%); format: functional
[15] = Induction of apoptosis in mouse KC-0116 cells assessed as viable cells at 100 nM measured after 36 hrs by Annexin V/propidium iodide staining based flow cytometry (reference value: 90.66%); format: functional; details: read-out: Activity
[16] = Induction of apoptosis in mouse KC-0116 cells assessed as necrotic cells at 100 nM measured after 36 hrs by Annexin V/propidium iodide staining based flow cytometry (reference value: 0.03%); format: functional
[17] = Antiproliferative activity against mouse Ba/F3 EGFR-Del19/T790M/C797S cells; format: functional, cell-based

**Q.** With CN1CCN(c2ccc(Nc3ncc4c5ccc(OC(F)(F)F)cc5n(-c5cccc(NC(=O)CN)c5)c4n3)cc2)CC1 as the molecule, how does the IC50 [1] read?
**A.** > 3300 nM

**Q.** With CN1CCN(c2ccc(Nc3ncc(Br)c(N[C@H]4CCCN(S(=O)(=O)C5CC5)C4)n3)cc2)CC1 as the molecule, how does the IC50 [1] read?
**A.** 2000 nM

**Q.** For CN1CCN(c2ccc(Nc3ncc(Br)c(N[C@H]4CC[C@H](O)CC4)n3)cc2)CC1, which IC50 [2] is on record?
**A.** 250 nM

**Q.** What about the IC50 (HCC827) of the same molecule?
**A.** 650 nM

**Q.** What about the IC50 [1] of the same molecule?
**A.** 240 nM

**Q.** What about the IC50 (A-431) of the same molecule?
**A.** > 3300 nM

**Q.** And the IC50 (NCI-H1975)?
**A.** 580 nM

**Q.** With CN1CCN(c2ccc(Nc3ncc4c5ccccc5n(-c5cccc(NCCO)c5)c4n3)cc2)CC1 as the molecule, how does the IC50 [1] read?
**A.** > 3300 nM

**Q.** With CN1CCN(c2ccc(Nc3ncc4c5ccccc5n([C@H]5CCN(S(=O)(=O)C6CC6)C5)c4n3)cc2)CC1 as the molecule, how does the IC50 [1] read?
**A.** > 3300 nM

**Q.** Which IC50 [1] does the source give for CN1CCN(c2ccc(Nc3ncc(Br)c(NC4CCN(S(=O)(=O)C5CC5)CC4)n3)cc2)CC1 here?
**A.** 1100 nM

**Q.** For C=CC(=O)Nc1cc(Nc2nccc(-c3cn(C)c4ccccc34)n2)c(OC)cc1N(C)CCN(C)C [OSIMERTINIB], which IC50 [2] is on record?
**A.** 1530 nM

**Q.** And the IC50 (HCC827)?
**A.** 1 nM

**Q.** What about the IC50 [1] of the same molecule?
**A.** 1430 nM

**Q.** With CN1CCN(c2ccc(Nc3ncc(-c4ccccc4)c(Nc4cccc(NC(=O)CN)c4)n3)cc2)CC1 as the molecule, how does the IC50 [1] read?
**A.** > 3300 nM

**Q.** Which IC50 [1] does the source give for CN1CCN(c2ccc(Nc3ncc(C(F)(F)F)c(N[C@H]4CC[C@H](O)CC4)n3)cc2)CC1 here?
**A.** > 3300 nM

**Q.** Which IC50 [3] does the source give for COc1cc(N2CCC(N3CCN(C)CC3)CC2)ccc1Nc1ncc(Cl)c(Nc2ccccc2P(C)(C)=O)n1 [BRIGATINIB] here?
**A.** 5.57 nM

**Q.** And the IC50 [2]?
**A.** 440 nM

**Q.** What about the viability at 0.3 µM [4] of the same molecule?
**A.** 90.8%

**Q.** And the IC50 (HCC827)?
**A.** 13 nM

**Q.** And the IC50 [1]?
**A.** 360 nM

**Q.** What about the Activity [5] of the same molecule?
**A.** 0.02%

**Q.** What about the IC50 (A-431) of the same molecule?
**A.** 500 nM

**Q.** And the IC50 (NCI-H1975)?
**A.** 830 nM

**Q.** And the Activity [6]?
**A.** 7.2%

**Q.** And the Activity [7]?
**A.** 1.94%

**Q.** For CN1CCN(c2ccc(Nc3ncc(Br)c(NC4CCN(S(C)(=O)=O)CC4)n3)cc2)CC1, which IC50 [1] is on record?
**A.** 940 nM

**Q.** Which IC50 [1] does the source give for CC(=O)N1CCC(Nc2nc(Nc3ccc(N4CCN(C)CC4)cc3)ncc2Br)CC1 here?
**A.** 950 nM

**Q.** Which IC50 [1] does the source give for CN(C)C1CCN(c2ccc(Nc3ncc(Cl)c(N[C@H]4CCN(S(=O)(=O)C5CC5)C4)n3)cc2)CC1 here?
**A.** > 3300 nM

**Q.** For CN(C)C1CCN(c2ccc(Nc3ncc(Br)c(N[C@H]4CC[C@H](O)CC4)n3)cc2)CC1, which IC50 [1] is on record?
**A.** 480 nM

**Q.** With CN1CCN(c2ccc(Nc3ncc(Br)c(NC4CCOCC4)n3)cc2)CC1 as the molecule, how does the IC50 [1] read?
**A.** 710 nM

**Q.** Which IC50 [1] does the source give for CN(C)C1CCN(c2ccc(Nc3ncc(Cl)c(N[C@H]4CCN(C(=O)CO)C4)n3)cc2)CC1 here?
**A.** > 3300 nM

**Q.** For CN1CCN(c2ccc(Nc3ncc(Br)c(N[C@H]4CCN(S(=O)(=O)C5CC5)C4)n3)cc2)CC1, which IC50 [1] is on record?
**A.** 1130 nM

**Q.** Which IC50 [1] does the source give for CN(C)C1CCN(c2ccc(Nc3ncc(Cl)c(N[C@H]4CCCN(C(=O)CO)C4)n3)cc2)CC1 here?
**A.** 1660 nM

**Q.** For CN1CCN(c2ccc(Nc3ncc(Br)c(N[C@@H]4CCCN(S(=O)(=O)C5CC5)C4)n3)cc2)CC1, which inhibition (KC-0116 [8]) is on record?
**A.** Dose-Dependent Effect

**Q.** What about the IC50 [2] of the same molecule?
**A.** 210 nM

**Q.** What about the viability at 0.3 µM [4] of the same molecule?
**A.** 80.2%

**Q.** And the Activity (KC-0116 [9])?
**A.** Active

**Q.** And the inhibition (KC-0116 [10])?
**A.** Dose-Dependent Effect

**Q.** What about the IC50 (HCC827) of the same molecule?
**A.** > 3300 nM

**Q.** And the Activity (KC-0116 [11])?
**A.** Dose-Dependent Effect

**Q.** And the IC50 [1]?
**A.** 200 nM

**Q.** And the Activity (KC-0116 [12])?
**A.** Dose-Dependent Effect

**Q.** What about the Activity [5] of the same molecule?
**A.** 0%

**Q.** What about the Activity [13] of the same molecule?
**A.** 11.51%

**Q.** What about the Activity [14] of the same molecule?
**A.** 4.61%

**Q.** And the viability at 0.1 µM [15]?
**A.** 83.9%

**Q.** What about the IC50 (A-431) of the same molecule?
**A.** 620 nM

**Q.** And the IC50 (NCI-H1975)?
**A.** > 3300 nM

**Q.** And the Activity [6]?
**A.** 14.6%

**Q.** What about the Activity [7] of the same molecule?
**A.** 5.19%

**Q.** What about the Activity [16] of the same molecule?
**A.** 0.01%

**Q.** For CN1CCN(c2ccc(Nc3ncc(Cl)c(N[C@H]4CC[C@H](O)CC4)n3)cc2)CC1, which IC50 [1] is on record?
**A.** 310 nM

**Q.** With CN1CCN(c2ccc(Nc3ncc4c5ccccc5n(-c5cccc(NS(C)(=O)=O)c5)c4n3)cc2)CC1 as the molecule, how does the IC50 [1] read?
**A.** > 3300 nM

**Q.** With CN1CCN(c2ccc(Nc3ncc4c5ccccc5n(-c5ccc(NC(=O)CN)cc5)c4n3)cc2)CC1 as the molecule, how does the IC50 [1] read?
**A.** > 3300 nM

**Q.** For CN1CCN(c2ccc(Nc3ncc4c5ccccc5n(-c5cccc(NC(=O)CO)c5)c4n3)cc2)CC1, which IC50 [1] is on record?
**A.** > 3300 nM

**Q.** With CN(C)C1CCN(c2ccc(Nc3ncc(Cl)c(N[C@@H]4CCCN(C(=O)CO)C4)n3)cc2)CC1 as the molecule, how does the IC50 [1] read?
**A.** > 3300 nM

**Q.** With CN1CCN(c2ccc(Nc3ncc(-c4ccccc4)c(N[C@H]4CCN(S(=O)(=O)C5CC5)C4)n3)cc2)CC1 as the molecule, how does the IC50 [1] read?
**A.** > 3300 nM

**Q.** Which IC50 [1] does the source give for CN(C)C1CCN(c2ccc(Nc3ncc(Cl)c(N[C@@H]4CCN(S(=O)(=O)C5CC5)C4)n3)cc2)CC1 here?
**A.** 460 nM

**Q.** For CN1CCN(c2ccc(Nc3ncc(Br)c(N[C@@H]4CCN(S(=O)(=O)C5CC5)C4)n3)cc2)CC1, which IC50 [1] is on record?
**A.** 3010 nM

**Q.** For CN(C)C1CCN(c2ccc(Nc3ncc(Cl)c(NC4CCN(C(=O)CO)CC4)n3)cc2)CC1, which IC50 [1] is on record?
**A.** 2460 nM

**Q.** For COc1cc(N2CCC(N3CCN(C)CC3)CC2)c(C)cc1Nc1ncc(Br)c(Nc2ccc3nccnc3c2P(C)(C)=O)n1, which IC50 [17] is on record?
**A.** 0.16 nM

**Q.** And the IC50 [3]?
**A.** 0.21 nM

**Q.** For CN1CCN(c2ccc(Nc3ncc(Br)c(NCc4ccccn4)n3)cc2)CC1, which IC50 [1] is on record?
**A.** 1310 nM

**Q.** With CN1CCN(c2ccc(Nc3ncc(Br)c(Nc4cccc(NC(=O)CN)c4)n3)cc2)CC1 as the molecule, how does the IC50 [1] read?
**A.** 440 nM
